The results in this text go back to publication PMC6006164, “Natural cyclopeptide RA-V inhibits the NF-κB signaling pathway by targeting TAK1” (Cell Death & Disease, 2018).

This experiment concerns HCT116 xenograft tumors. The experiment in a line: HCT116 xenograft in nude mice. It is filed as in vivo, female athymic nude BALB/c mice. The procedure: Fig. 7 RA-V inhibits tumor growth and the expression of NF-κB target genes in a nude xenograft model. a–d Inhibition of the growth of HCT116 and HepG2 xenograft tumors by RA-V. Female athymic nude BALB/c mice bearing HCT116 (n = 8) or HepG2 (n = 7) xenograft tumors were intravenously injected with various concentrations of RA-V micelles or control micelles every other day. 5-FU (10 mg/kg) group as positive control. Effects of RA-V on the growth curves of subcutaneoue xenografts of HCT116 (a) and HepG2 (b) and effects on the tumor weight in the HCT116 (c) and HepG2 (d) models. e–f Tumors removed were photographed. g–h The expression of the NF-κB target genes, IL-8, MCP-1, and CXCL-1, in HCT116 (g) and HepG2 (h) tumor tissue from vehicle- and various concentrations of RA-V-treated group was determined by quantitative RT-PCR and normalized to GADPH expression. *, p < 0.05; **, p < 0.01; ***, p < 0.001
In total, 2 × 10^6 HCT116 or 3 × 10^6 HepG2 cells were subcutaneously injected into the right dorsal flank of 6- to 8-week-old female athymic nude BALB/c mice. After tumor volumes reached 100 mm^3, the tumor-bearing mice were randomly divided into several groups. The mice bearing HCT116 (n = 8) or HepG2 xenograft tumors (n = 7) were received the intravenous injection of vehicle micelles or various concentrations of RA-V micelles every other day. 5-FU (10 mg/kg) group as positive control. Body weights and tumor volumes were recorded every other day. Tumor volumes were calculated using the following formula: tumor volume (mm^3) = 0.52 × length × width^2. At the end of the experiments, the mice were killed. Tumor xenografts of each mouse were removed and weighed. Part of each tumor tissue was stored at liquid nitrogen for quantitative RT-PCR analysis. […] Serum alanine transaminase(ALT), aspartate transaminase(AST), and creatine kinase(CK) were determined using relevant kits (Nanjing Jiancheng) according to the manufacturer’s specific instructions.

Setting [1] is: HCT116, n = 8, RA-V micelles i.v. every other day, vs control.

For the substance RA-V, under setting [1], the “tumor growth rate (tumor volume)” value is reported as “significantly reduced” and the tumor weight entry is on record as “obviously lower”. Further, the “expression of IL-8, MCP-1, and CXCL-1 in tumor tissue” value (HCT116 xenograft, quantitative RT-PCR) was “remarkable decreased”.
